Measurements taken from patent US20230069804A1, “METHODS AND COMPOSITIONS FOR MODULATING SPLICING” (SkyHawk Therapeutics, Inc., priority 2019, published 2023).
Like-named read-outs stand apart in the source and are kept apart here.

Tests used:
MDR1 = test: MDCK-MDR1 permeability assay (BBB penetration potential); assay type: in vitro ADME; settings: dog; for Papp A→B at 120 min, 5 μM / Papp B→A at 120 min, 5 μM: MDCK-MDR1, pH 7.4
Experimental: (§1) Each determination is performed in duplicate. […] Analytical conditions are outlined below.
(§2) Papp=(dCr/dt)×Vr/(A×CA) (1)

[1] = tested on: MDR1-MDCK cell monolayers; test: as above; assay type: in vitro ADME; settings: 5 μM, 120 minutes; for MDCK-MDR1: % Recov A-B / MDCK-MDR1: % Recov B-A: pH 7.4
Experimental: as §1, §2

SMN protein = SMN protein assay (MSD) in SMA patient fibroblasts GM03813; assay type: cell-based; settings: SMA patient fibroblasts GM03813, 48 hours
Experimental: Compounds were tested on spinal muscular atrophy (SMA) patient fibroblasts (GM03813, Coriell) at doses ranging from 2.5 μM to 0.6 nM. 7000 cells/well were seeded in 96-well plates. Compounds were incubated for 48 hours and the cells were lysed with 100 μL of lysis buffer. 20 μL of lysate was used for SMN protein measurement by Mesoscale Discovery (MSD) assay developed by PharmOptima (Michigan). A standard curve prepared with SMN protein ranging from 1 μg/ml to 19.5 pg/ml was used in each MSD plate to calculate the absolute SMN protein amount in each sample.

SMN2 = test: Quantitative splicing assay (SMN) in SMA patient fibroblasts GM03813; assay type: cell-based; settings: Homo sapiens, Fibroblast, SMA patient fibroblasts GM03813, 24 h; for IC50: read-out: SMN2 Potency - Splicing: Splicing D7 IC50 (average); for EC50: read-out: SMN2 Potency - Splicing: Splicing FL EC50 (average)
Experimental: Spinal muscular atrophy (SMA) patient fibroblasts (GM03813, Coriell) are plated in 96-well plates at 50,000 cells/well. Immediately after plating, cells are dosed with compounds for 24 h at concentrations ranging from 2.5 μM to 0.6 nM (0.1% DMSO). Treated cells are lysed and cDNA synthesized using the Fast Advanced Cells-to-Ct kit (Thermofisher A35378) according to the manufacturer's instructions. 2 μL of each cDNA are used in qPCR reactions. The qPCR reactions are prepared in 384-well plates in 10 μL volume, using TaqMan™ Fast Advanced Master Mix (ThermoFisher; 4444965) with primers and probes shown in the table below. Reactions are run in a Quant Studio 6 qPCR instrument with default settings.
It is to be understood that the absolute stereochemistry for compounds of Table 3 is not determined.

[2] = MDCK-MDR1, pH 7.4, Papp (B-to-A)/Papp (A-to-B), read-out: MDCK-MDR1: Efflux
[3] = Fibroblast, 48 h, read-out: SMN2 Potency - Protein: Protein FL EC50 (average)

Structure (SMILES)	efflux ratio at 120 min, 5 μM (MDR1; MDCK-MDR1, pH 7.4, Papp (B-to-A)/Papp (A-to-B), 5 μM, 120 minutes, separated enantiomers, told apart by chiral retention time, read-out: MDCK MDRP1 Efflux Ratio)	MDCK MDRP1 Efflux Ratio ([1]; Papp (B-to-A)/Papp (A-to-B), separated enantiomers, told apart by chiral retention time)	EC50 (SMN protein; Fibroblast, 48 h, separated enantiomers, told apart by chiral retention time, read-out: SMN EC50)	EC50 (SMN protein; separated enantiomers, told apart by chiral retention time, read-out: SMN EC50)	efflux ratio at 120 min, 5 μM (MDR1; [2])	Papp A→B at 120 min, 5 μM (MDR1; 5 μM, 120 minutes)	Papp B→A at 120 min, 5 μM (MDR1; 5 μM, 120 minutes)	MDCK-MDR1: % Recov A-B [1]	MDCK-MDR1: % Recov B-A [1]	EC50 (SMN protein; [3])	IC50 (SMN2)	EC50 (SMN2)
CN(c1nnc(-c2ccc(-c3ccn(C)c(=O)c3)cc2O)s1)[C@@H]1C[C@H]2CC[C@H](N2)[C@@H]1F (racemic) [4A/4B, 4-[4-(5-{[(1S,2S,3R)-2-fluoro-8-azabicyclo[3.2.1]octan-3-yl](methyl)amino}-1,3,4-thiadiazol-2-yl)-3-hydroxyphenyl]-1-methyl-1,2-dihydropyridin-2-one and 4-[4-(5-{[(2R,3S,5S)-2-fluoro-8-azabicyclo[3.2.1]octan-3-yl](methyl)amino}-1,3,4-thiadiazol-2-yl)-3-hydroxyphenyl]-1-methyl-1,2-dihydropyridin-2-one]	54	40	51 to 100 nM	101 to 500 nM								
COc1cc(-c2ccc(-c3nnc(N(C)[C@@H]4C[C@H]5CC[C@H](N5)[C@@H]4F)s3)c(O)c2)ncn1 (single isomer, unassigned) [Compound E-5A]					2	7.8 ×10⁻⁶ cm/s	19.1 ×10⁻⁶ cm/s	41%	61%	16 to 50 nM	51 to 100 nM	51 to 100 nM
CN(c1nnc(-c2cc(F)c(-c3cn[nH]c3)cc2O)s1)[C@H]1C[C@@H]2CC[C@@H](N2)[C@H]1F (single isomer, unassigned) [Compound E-6B]					12	3.16 ×10⁻⁶ cm/s	39.3 ×10⁻⁶ cm/s	62%	76%	0.01 to 15 nM	0.01 to 15 nM	16 to 50 nM
CN(c1nnc(-c2ccc(-c3cn[nH]c3)cc2O)s1)[C@@H]1C[C@H]2CC[C@H](N2)[C@@H]1F (single isomer, unassigned) [Compound E-7B]					12	4.76 ×10⁻⁶ cm/s	56 ×10⁻⁶ cm/s	79%	91%	0.01 to 15 nM	0.01 to 15 nM	0.01 to 15 nM
CN(c1nnc(-c2cc(F)c(-c3cnn(C)c3)cc2O)s1)[C@H]1C[C@@H]2CC[C@@H](N2)[C@H]1F (single isomer, unassigned) [Compound E-9A]					6	5.87 ×10⁻⁶ cm/s	36.3 ×10⁻⁶ cm/s	51%	68%	51 to 100 nM	51 to 100 nM	101 to 500 nM
CN(c1nnc(-c2cc(F)c(-c3cnn(C)c3)cc2O)s1)[C@@H]1C[C@H]2CC[C@H](N2)[C@@H]1F (single isomer, unassigned) [Compound E-9B]					5	5.38 ×10⁻⁶ cm/s	26 ×10⁻⁶ cm/s	48%	67%	16 to 50 nM	0.01 to 15 nM	16 to 50 nM
CN(c1nnc(-c2ccc(-c3cnn(CF)c3)cc2O)s1)[C@@H]1C[C@H]2CC[C@H](N2)[C@@H]1F (single isomer, unassigned) [Compound E-10B]					6	7.85 ×10⁻⁶ cm/s	48.9 ×10⁻⁶ cm/s	72%	73%	0.01 to 15 nM	16 to 50 nM	16 to 50 nM
CN(c1nnc(-c2ccc(-c3ccn(CF)c(=O)c3)cc2O)s1)[C@H]1C[C@@H]2CC[C@@H](N2)[C@H]1F (single isomer, unassigned) [Compound E-15B]					66	0.98 ×10⁻⁶ cm/s	64.8 ×10⁻⁶ cm/s	88%	97%	16 to 50 nM	51 to 100 nM	101 to 500 nM
CN(c1nnc(-c2ccc(-c3cn[nH]c3)cc2O)s1)[C@H]1C[C@@H]2CC[C@H]([C@H]1F)N2C (single isomer, unassigned) [Compound E-23A]					9	4.65 ×10⁻⁶ cm/s	41.2 ×10⁻⁶ cm/s	78%	90%	101 to 500 nM	501 to 10000 nM	501 to 10000 nM
CN(c1nnc(-c2ccc(-c3cnn(C)c3)cc2O)s1)[C@@H]1C[C@H]2CCC[C@H](N2)[C@@H]1F [Compound E-1A, 2-(5-(((1S,2S,3R,5R)-2-fluoro-9-azabicyclo[3.3.1]nonan-3-yl)(methyl)amino)-1,3,4-thiadiazol-2-yl)-5-(1-methyl-1H-pyrazol-4-yl)phenol]					6	5.28 ×10⁻⁶ cm/s	33.1 ×10⁻⁶ cm/s	57%	71%	16 to 50 nM	51 to 100 nM	101 to 500 nM
CN(c1nnc(-c2ccc(-c3cnn(C)c3)cc2O)s1)[C@H]1C[C@@H]2CCC[C@@H](N2)[C@H]1F [Compound E-1B, 2-(5-(((1R,2R,3S,5S)-2-fluoro-9-azabicyclo[3.3.1]nonan-3-yl)(methyl)amino)-1,3,4-thiadiazol-2-yl)-5-(1-methyl-1H-pyrazol-4-yl)phenol]					4	5.53 ×10⁻⁶ cm/s	20.4 ×10⁻⁶ cm/s	53%	68%	0.01 to 15 nM	0.01 to 15 nM	16 to 50 nM
COc1cc(-c2ccc(-c3nnc(N(C4CC4)[C@@H]4C[C@H]5CC[C@H](N5)[C@@H]4F)s3)c(O)c2)cc(F)n1 [Compound E-2A, 2-(5-(cyclopropyl((1S,2S,3R,5R)-2-fluoro-8-azabicyclo[3.2.1]octan-3-yl)amino)-1,3,4-thiadiazol-2-yl)-5-(2-fluoro-6-methoxypyridin-4-yl)phenol]					6	2.07 ×10⁻⁶ cm/s	12 ×10⁻⁶ cm/s	19%	45%	0.01 to 15 nM	0.01 to 15 nM	16 to 50 nM
COc1cc(-c2ccc(-c3nnc(N(C4CC4)[C@H]4C[C@@H]5CC[C@@H](N5)[C@H]4F)s3)c(O)c2)cc(F)n1 [Compound E-2B, 2-(5-(cyclopropyl((1R,2R,3S,5S)-2-fluoro-8-azabicyclo[3.2.1]octan-3-yl)amino)-1,3,4-thiadiazol-2-yl)-5-(2-fluoro-6-methoxypyridin-4-yl)phenol]					5	1.87 ×10⁻⁶ cm/s	9.89 ×10⁻⁶ cm/s	16%	44%	0.01 to 15 nM	16 to 50 nM	51 to 100 nM
